Square brackets hold non-standard residues; d marks the D form. Peptide text beside a SMILES is read from it.
Columns and labels:
[1] = tested on: endotoxins-induced uveitis albino rat model; test: Endotoxins induced uveitis (EIU), single intravenous injection, clinical scoring 24 hours after LPS; assay type: in vivo; set-up: key to clinical score of ocular inflammation, mean score (mean±SEM) / clinical score of ocular inflammation, median: ocular inflammation score per eye, 0 = none to 4 = intense (+1 fibrin); details: for clinical score of ocular inflammation, mean score (mean±SEM) / clinical score of ocular inflammation, median: 24 hours after LPS
Protocol: FIG. 28 Clinical evaluation of administration of different amounts of the JNK inhibitor according to SEQ ID NO: 172 in albino rats after intravenous administration (endotoxins induced uveitis model). Form left to right: Vehicle, 0.015 mg/kg (i.v.) of SEQ ID NO: 172; 0.18 mg/kg (i.v.) of SEQ ID NO: 172; 1.8 mg/kg (i.v.) of SEQ ID NO: 172, 2 mg/kg (i.v.) of SEQ ID NO: 197 and 20 μg dexamethasone (administered directly by subconjunctival injection to the eye). Indicated is the clinical score (mean and the SEM).
The anti-inflammatory potency of the JNK inhibitor of SEQ ID NO: 172 was tested in albino rats following intravenous administration (EIU/LPS model). The aim of this study was to determine the effects of single intravenous injections of SEQ ID NO: 172 (0.015, 0.18, and 1.80 mg/kg) on the inflammatory response in an endotoxins-induced uveitis albino rat model and to compare these affects to those obtained with prior art JNK inhibitor of SEQ ID NO: 197 (2 mg/kg). As a further control served phosphate sodic dexamethasone.
Sixty (60) male Lewis rats were randomly divided into six (6) groups of ten (10) animals each. EIU was induced by footpad injection of lipopolysaccharide (LPS, 1 mg/kg). NaCl (0.9%), SEQ ID NO: 197 at 2 mg/kg and SEQ ID NO: 172 at three concentrations (1.80 mg/kg, 0.18 mg/kg and 0.015 mg/kg) were administered by intravenous injection. Phosphate sodic dexamethasone ([…]) was administered by sub-conjunctival injection in both eyes. 24 hours after LPS injection, inflammatory response was evaluated by clinical scoring.
The intensity of clinical ocular inflammation was scored on a scale from 0 to 4 for each eye: • Grade 0 no inflammation • Grade 1 slight iris and conjunctival vasodilation • Grade 2 moderate iris and conjunctival vasodilation with flare • Grade 3 intense iris and conjunctival vasodilation with flare • Grade 4 intense inflammatory reaction • (+1) fibrin formation and seclusion of pupils

[2] = tested on: THP1-PMA-differentiated macrophages; test: LPS-induced cytokine and chemokine release in PMA differentiated THP1 macrophages (ELISA); assay type: cell-based, human
Protocol: In the following the procedure will be set forth describing how the released amount of several human cytokines after ligand induced secretion from human cells (Blood, WBC, PBMC, purified primary lymphocytes, cell lines, . . . ) was measured.
The technique used is a Sandwich ELISA, which allows measuring the amount of antigen between two layers of antibodies (i.e. capture and detection antibody). The antigen to be measured must contain at least two antigenic sites capable of binding to antibody, since at least two antibodies act in the sandwich. Either monoclonal or polyclonal antibodies can be used as the capture and detection antibodies in Sandwich ELISA systems. Monoclonal antibodies recognize a single epitope that allows fine detection and quantification of small differences in antigen. A polyclonal is often used as the capture antibody to pull down as much of the antigen as possible.
The method may be used to determine the effect of the JNK inhibitors of the present invention in vitro/cell culture. At non toxic doses, compound efficacy is indicated by the decrease of the cytokine levels (the variation of optical density (absorbance at 450 nm)) as compared to non-treated samples and is monitored by ELISA. Results are express in ng/ml.
In the following the procedure will be set forth describing how cytokine production from human PMA differentiated THP1 cells challenged by LPS for 6 h was induced in order to test the ability of JNK inhibitors of the present invention, in particular of a JNK inhibitor with SEQ ID NO: 172, to reduce stimulation-induced cytokine release. THP1 cells were stimulated ex-vivo by different ligands for the readout of cytokine release. At non toxic doses, JNK inhibitor efficacy is indicated by the decrease of the cytokine levels as compared to non-treated samples and is monitored by ELISA. The toxicity of the compound are evaluated by the reduction of a tretazolium salt (MTS) to formazan, giving a purple colour.
a. Material • Cell Line: THP-1 (Ref TIB-202, ATCC, lot 57731475) • Culture medium, reagent and plates • RPMI (Ref 21875-091, Invitrogen) complemented with: • 10% FBS (Ref A15-151, PAA): decomplemented at 56° C., 30 min. • 10 mM Hepes (Ref H0887, Sigma) • 50 μM β-mercaptoethanol (Ref 63690, Fluka: stock at 14.3M): add 560 μl of 50 mM aliquots in PBS stocked at −20° C.) • 1 mM Sodium Pyruvate (Ref 58636, Sigma) • Penicilline (100 unit/ml)/Streptomycine (100 μg/ml) (Ref P4333, Sigma) • The RPMI medium is then filtrated with a […] (Ref SCGPU05RE, Millipore). • PBS 10× (Ref 70011, Invitrogen): diluted to 1× with sterile H2O • DMSO: Ref 41444, Fluka • PMA (phorbol 12-myristate 13-acetate, Ref P1585, Sigma, concentration 1 mM=616.8 ug/ml in DMSO at −20° C.). […]

[3] = THP1 differentiated macrophages, LPS 6 h (10 ng/ml)

CC(C)C[C@H](NC(=O)[C@H](CC(N)=O)NC(=O)[C@H](CC(C)C)NC(=O)[C@@H](NC(=O)[C@@H](C)NC(=O)[C@@H]1CCCN1C(=O)[C@H](CCCNC(=N)N)NC(=O)[C@@H](CCCCN)NC(=O)[C@@H]1CCCN1C(=O)[C@H](CCCNC(=N)N)NC(=O)[C@@H](CCCNC(=N)N)NC(=O)[C@H](CCCNC(=N)N)NC(=O)[C@H](CCCNC(=N)N)NC(=O)[C@H](CCC(N)=O)NC(=O)[C@@H](CCCNC(=N)N)NC(=O)[C@H](CCCNC(=N)N)NC(=O)[C@H](CCCCN)NC(=O)[C@H](CCCCN)NC(=O)[C@H](N)CCCNC(=N)N)[C@@H](C)O)C(=O)N[C@H](Cc1ccccc1)C(N)=O [SEQ ID NO: 172, rKKRrQRRrRPkRPaTLNLf] (H-[dR]KKR[dR]QRR[dR]RP[dK]RP[dA]TLNL[dF]-NH2; N-terminus assumed)
clinical score of ocular inflammation, mean score (mean±SEM) ([1]; 0.015 mg/kg intravenous): 2.3±0.3
clinical score of ocular inflammation, median ([1]; 0.015 mg/kg intravenous): 2
clinical score of ocular inflammation, mean score (mean±SEM) ([1]; 0.18 mg/kg intravenous): 2.4±0.3
clinical score of ocular inflammation, median ([1]; 0.18 mg/kg intravenous): 2
clinical score of ocular inflammation, mean score (mean±SEM) ([1]; 1.80 mg/kg intravenous): 2.1±0.3
clinical score of ocular inflammation, median ([1]; 1.80 mg/kg intravenous): 2
endotoxin-induced inflammation in the anterior chamber (conclusion) ([1]; single intravenous injection, SEQ ID NO: 197 at 2 mg/kg, SEQ ID NO: 172 at 0.015, 0.18, 1.80 mg/kg): also reduced the endotoxin-induced inflammation
LPS-induced TNFα release, potency comparison ([2]; PMA differentiated macrophages): higher potency than D-TAT-IB1 (SEQ ID NO: 197) and L-TAT-IB1 (SEQ ID NO: 196)
LPS-induced IL-6 release, potency comparison ([2]; PMA differentiated macrophages, LPS 6 h): higher potency than D-TAT-IB1 (SEQ ID NO: 197) and L-TAT-IB1 (SEQ ID NO: 196)
LPS-induced IL6 release, potency comparison [2, 3]: higher potency than D-TAT-IB1 (SEQ ID NO: 197), dTAT (SEQ ID NO: 45) and SP 600125
LPS-induced TNFα release, potency comparison [2, 3]: higher potency than D-TAT-IB1 (SEQ ID NO: 197), dTAT (SEQ ID NO: 4.5) and SP 600125
